{"source": "patent US8759366B2", "about": "“Aminopyrimidines as SYK inhibitors” (Merck Sharp & Dohme Corp., priority 2009, dated 2014)", "key": {"rhSYK": {"biological_target": "rhSYK (Homo sapiens (Human), UniProt P43405)", "experiment": "biochemical"}, "[1]": {"biological_target": "recombinant human SYK (GST-hSYK fusion protein) (Homo sapiens (Human), UniProt P43405)", "experiment": "biochemical", "description": "Homogeneous Time-Resolved Fluorescence (HTRF) Assay for the Recombinant Human SYK Enzyme:"}, "PGD2": {"tested_on": "PGD2", "conditions": "dosed intranasally, phase I/II study, allergic rhinitis; cited from earlier work"}, "[2]": {"conditions": "phase II clinical trial, allergic rhinitis; cited from earlier work"}}}
{"smiles": "CCNC(=O)Nc1cc(Nc2nccc(C(F)(F)F)n2)cc(-c2cnc(C3CCC(C(N)=O)CC3)s2)c1", "note": "(single isomer, unassigned) [Example 20(1), 4-[5-(3-[(ethylcarbamoyl)amino]-5-{[4-(trifluoromethyl)pyrimidin-2-yl]amino}phenyl)-1,3-thiazol-2-yl]cyclohexanecarboxamide]", "values": [{"measurement": "IC50", "setting": "rhSYK", "result": "< 100", "unit": "nM"}]}
{"smiles": "O=C(O)[C@H]1CC[C@H](c2ncc(-c3cccc(Nc4nccc(C(F)(F)F)n4)c3)s2)CC1", "note": "[Example 22, Trans-4-[5-(3-{[4-(trifluoromethyl)pyrimidin-2-yl]amino}phenyl)-1,3-thiazol-2-yl]cyclohexanecarboxylic acid]", "values": [{"measurement": "IC50", "setting": "rhSYK", "result": "< 100", "unit": "nM"}]}
{"smiles": "O=C(NC1CC1)[C@H]1CC[C@H](c2ncc(-c3cccc(Nc4nccc(C(F)(F)F)n4)c3)s2)CC1", "note": "[Example 23, trans-N-cyclopropyl-4-[5-(3-{[4-(trifluoromethyl)pyrimidin-2-yl]amino}phenyl)-1,3-thiazol-2-yl]cyclohexanecarboxamide]", "values": [{"measurement": "IC50", "setting": "rhSYK", "result": "< 100", "unit": "nM"}]}
{"smiles": "COc1ccnc(Nc2cc(C)cc(-c3cnc([C@]4(F)CC[C@@H](C(=O)O)CC4)s3)c2)n1", "note": "[Example 113D-13]", "values": [{"measurement": "IC50", "setting": "[1]", "result": "< 100", "unit": "nM"}]}
{"smiles": "Oc1cccc(Nc2ncc(F)c(Nc3cccc(O)c3)n2)c1", "note": "[Example R112]", "values": [{"measurement": "PGD2", "setting": "PGD2", "result": "statistically significant decrease"}, {"measurement": "clinical safety", "setting": "PGD2", "result": "safe across a range of indicators"}, {"measurement": "efficacy versus placebo", "setting": "[2]", "result": "lack of efficacy"}]}
